Experimental findings from patent US12516237B2, “Alkyl lactone-derived corrosion inhibitors” (ChampionX LLC, priority 2018, dated 2026) are described below.

This experiment can be described thus: Bubble cell test: corrosion rate of steel electrode by aqueous linear polarization resistance (LPR) in CO2-saturated synthetic oilfield brine/oil. The settings on record: 15 h after dosing, 80° C., 80% water cut, CO2 purge, C1018, samples 10 ppm of 20% active + 2% 2ME; for % Protection (corrosion inhibition): relative to baseline corrosion rate before dosing, comparatives 20 ppm of 10% active + 1% 2ME; for Inhibited Corrosion Rate: comparatives 20 ppm of 10% active + 1% 2ME (same active concentration). The source says: The bubble cell test was used to investigate the effectiveness of alkyl lactone-derived hydroxyamides as corrosion inhibitors. This test measures the corrosion rate of a steel electrode by aqueous linear polarization resistance (LPR). The steel electrodes (C1018) were placed in a bath of synthetic oilfield brine which was deaerated with carbon dioxide. The corrosion rate of the electrode was compared in the absence or presence of an alkyl lactone-derived hydroxyamide.
The synthetic oilfield brine contained about 3 wt % of sodium chloride, and the oil included a synthetic oil of INT-200 and xylene. The ratio of water to oil was 80:20. The oil/brine was placed into bubble cells and purged with CO2. The oil/brine was continually purged with CO2 to saturate the oil/brine prior to starting the test. The test cells were blanketed with CO2 throughout the duration of the test to maintain saturation. The bubble cells were stirred at 100 revolutions per minute (rpm) for the duration of the test to maintain thermal equilibrium at 80° C. The electrodes were all cleaned and polished prior to testing.
After about 3 hours of pre-corrosion time (i.e. without a corrosion inhibitor) 10 ppm of a 20% active of an alkyl-lactone chemistry (shown in Table 2 and prepared as described in Example 1) with 2% 2-mercaptoethanol (2ME) solvent was added. Comparison with a benzyl ammonium chloride quarternary chemistry and imidazoline chemistry was made at the same active concentration as the alkyl lactone together with 2ME (at the same dose based on chemistry and 2ME activity—i.e. these were dosed at twice the concentration because the active and 2ME in the test blend was half).

SMILES strings stand for the structures.

Regarding `CCCCCCCC(O)CCC(=O)NCCCN(C)C` (stereo not drawn) [Sample 1, γ-Undecalactone/DMAPA], the “% Protection (corrosion inhibition)” value amounted to 37% and the “Inhibited Corrosion Rate” value worked out at 181 mpy.
Take `CCCCCCC(O)CCCC(=O)NCCCN(C)C` (stereo not drawn) [Sample 2, δ-Undecalactone/DMAPA]: the “% Protection (corrosion inhibition)” value amounted to 43% and the “Inhibited Corrosion Rate” value was found to be 151 mpy.
For `CCCCC(O)CCC(=O)NCCCN(C)C` (stereo not drawn) [Sample 3, γ-Octalactone/DMAPA], the “% Protection (corrosion inhibition)” value is 31% and the “Inhibited Corrosion Rate” value turned out to be 177 mpy.
